Measured values published in patent US20210038607A1, “OXADIAZOLYLTHIOPHENE DERIVATIVES USEFUL AS HISTONE DEACETYLASE INHIBITORS” (Karus Therapeutics Limited, priority 2018, published 2021).

Test system: acetylated histone H3 in A549 lung adenocarcinoma cells
Assay: Acetylated histone H3 in-cell western (ICW) assay
Format: cell-based
Settings: Homo sapiens, 16 h exposure, relative to 40 μM Trichostatin A positive control, read-out: EC50 Ac-histone H3, A549 cells
Procedure: Acetylated α-Tubulin and Histone H3 in-Cell Western (ICW) Assays
A549 cells were maintained in DMEM (Life Technologies)+10% FBS+2 mM glutamine & penicillin (10 μg/mL) and streptomycin ([…]. 10,000 A549 cells per well were plated into 96 well tissue culture plates (Corning) and incubated at 37° C. overnight in a humidified atmosphere containing 5% CO2 prior to addition of compounds. Compounds (dissolved in 100% DMSO) were diluted into cell culture media at 2× final assay concentration. 2× compound or DMSO (negative control) were added to cells (final DMSO concentration 0.4%). Untreated control wells received media. For acetylated α-tubulin assays, 40 μM scriptaid was used as a positive control. For acetylated histone H3 assays, 40 μM Trichostatin A (TSA) was used as a positive control. Cells were exposed to compound at 37° C. in a humidified atmosphere containing 5% CO2 for 16 h.
Measurement of the impact of compounds on levels of acetylated α-tubulin and histone H3 was performed using specific antibodies and near-infrared immunofluorescent dyes. Briefly, media was removed from wells of assay plates. Cells were washed once with PBS and fixed in 3.7% formaldehyde PBS solution at room temperature for 20 min. Cells were then permeabilised by washing 5 times in 0.1% triton-X-100 PBS at room temperature with gentle agitation for 5 min per wash. Non-specific antibody staining was blocked by the addition of Odyssey blocking buffer (Li-Cor) for 1.5 h at room temperature with gentle agitation. Cells were then incubated with primary antibody (mouse monoclonal anti-acetylated α-tubulin (clone 6-11B-1), Sigma or rabbit polyclonal anti-acetylated histone H3, Millipore) diluted in Odyssey blocking buffer at 4° C. with gentle shaking overnight (no antibody control and secondary antibody only wells were incubated with Odyssey blocking buffer only). Cells were washed five times with 0.1% tween PBS and labelled with secondary antibody (IR dye 800CW-conjugated goat anti mouse IgG or -goat anti rabbit IgG, Li-Cor) and cell stains Sapphire700 (Li-Cor) and Draq5 (Biostatus) diluted in Odyssey blocking buffer at room temperature in the dark with gentle shaking for 1 h (no antibody control wells were incubated with Odyssey blocking buffer only and secondary antibody only with diluted secondary antibody but no cell stains). Cells were washed with 0.1% Tween PBS five times and scanned using a Li-Cor Odyssey SA plate reader in 700 and 800 nm channels. Acetylated α-tubulin or histone H3 signal was normalised to cell number using the cell stain signal. Percentage increase in acetylated α-tubulin or histone H3 after compound treatment over the mean of DMSO treated controls, relative to scriptaid and TSA positive controls, respectively was calculated. EC50 values were calculated using GraphPad Prism software and nonlinear regression with 0% bottom and 100% top constraints.

EC50 | Compound
≥ 10 µM | O=C(c1ccc(N(Cc2ccc(-c3noc(C(F)(F)F)n3)s2)c2cnccn2)nn1)N1CCC12COC2 [Example FH, 6-{6-Oxa-1-azaspiro[3.3]heptane-1-carbonyl}-N-(pyrazin-2-yl)-N-({5-[5-(trifluoromethyl)-1,2,4-oxadiazol-3-yl]thiophen-2-yl}methyl)pyridazin-3-amine]
≥ 10 µM | O=C(c1ccc(N(Cc2ccc(-c3noc(C(F)(F)F)n3)s2)c2cnccn2)nn1)N1CCC1 [Example FF, 6-(Azetidine-1-carbonyl)-N-(pyrazin-2-yl)-N-({5-[5-(trifluoromethyl)-1,2,4-oxadiazol-3-yl]thiophen-2-yl}methyl)pyridazin-3-amine]
≥ 10 µM | O=C(c1cnnc(N(Cc2ccc(-c3noc(C(F)(F)F)n3)s2)c2cnccn2)c1)N1CCC1 [Example FS, 5-(Azetidine-1-carbonyl)-N-(pyrazin-2-yl)-N-({5-[5-(trifluoromethyl)-1,2,4-oxadiazol-3-yl]thiophen-2-yl}methyl)pyridazin-3-amine]
≥ 10 µM | O=C(c1ccc(N(Cc2ccc(-c3noc(C(F)(F)F)n3)s2)c2cnccn2)nn1)N1CCCCC1 [Example FG, 6-(Piperidine-1-carbonyl)-N-(pyrazin-2-yl)-N-({5-[5-(trifluoromethyl)-1,2,4-oxadiazol-3-yl]thiophen-2-yl}methyl)pyridazin-3-amine]
≥ 10 µM | FC(F)(F)c1nc(-c2ccc(CN(c3cnccn3)c3ccc(CN4CCOCC4)nn3)s2)no1 [Example FN, 6-[(Morpholin-4-yl)methyl]-N-(pyrazin-2-yl)-N-({5-[5-(trifluoromethyl)-1,2,4-oxadiazol-3-yl]thiophen-2-yl}methyl)pyridazin-3-amine]
≥ 10 µM | COC1CN(Cc2ccnc(N(Cc3ccc(-c4noc(C(F)(F)F)n4)s3)c3cnccn3)c2)C1 [Example GH, N-{4-[(3-Methoxyazetidin-1-yl)methyl]pyridin-2-yl}-N-({5-[5-(trifluoromethyl)-1,2,4-oxadiazol-3-yl]thiophen-2-yl}methyl)pyrazin-2-amine]
≥ 10 µM | O=C(c1ccc(N(Cc2ccc(-c3noc(C(F)(F)F)n3)s2)c2cnccn2)nn1)N1C[C@@H]2C[C@H]1CO2 [Example FE, 6-[(1S,4S)-2-Oxa-5-azabicyclo[2.2.1]heptane-5-carbonyl]-N-(pyrazin-2-yl)-N-({5-[5-(trifluoromethyl)-1,2,4-oxadiazol-3-yl]thiophen-2-yl}methyl)pyridazin-3-amine]

More lines, now with the values behind:

Compound | EC50
CNC(=O)c1cnnc(N(Cc2ccc(-c3noc(C(F)(F)F)n3)s2)c2cnccn2)c1 [Example DY, N-Methyl-6-[(pyrazin-2-yl)({5-[5-(trifluoromethyl)-1,2,4-oxadiazol-3-yl]thiophen-2-yl}methyl)amino]pyridazine-4-carboxamide] | ≥ 10 µM
O=C(O)c1cnnc(N(Cc2ccc(-c3noc(C(F)(F)F)n3)s2)c2cnccn2)c1 [Example DW, 6-[(Pyrazin-2-yl)({5-[5-(trifluoromethyl)-1,2,4-oxadiazol-3-yl]thiophen-2-yl}methyl)amino]pyridazine-4-carboxylic acid] | ≥ 10 µM
CN1CCN(C(=O)c2cnnc(N(Cc3ccc(-c4noc(C(F)(F)F)n4)s3)c3cnccn3)c2)CC1 [Example EC, 5-(4-Methylpiperazine-1-carbonyl)-N-(pyrazin-2-yl)-N-({5-[5-(trifluoromethyl)-1,2,4-oxadiazol-3-yl]thiophen-2-yl}methyl)pyridazin-3-amine] | ≥ 10 µM
NC(=O)c1cnnc(N(Cc2ccc(-c3noc(C(F)(F)F)n3)s2)c2cnccn2)c1 [Example DX, 6-[(Pyrazin-2-yl)({5-[5-(trifluoromethyl)-1,2,4-oxadiazol-3-yl]thiophen-2-yl}methyl)amino]pyridazine-4-carboxamide] | ≥ 10 µM
O=C(c1cnnc(N(Cc2ccc(-c3noc(C(F)(F)F)n3)s2)c2cnccn2)c1)N1CCS(=O)(=O)CC1 [Example ED, 4-{6-[(Pyrazin-2-yl)({5-[5-(trifluoromethyl)-1,2,4-oxadiazol-3-yl]thiophen-2-yl}methyl)amino]pyridazine-4-carbonyl}-1λ^6-thiomorpholine-1,1-dione] | ≥ 10 µM
O=C(c1cnnc(N(Cc2ccc(-c3noc(C(F)(F)F)n3)s2)c2cnccn2)c1)N1CCOCC1 [Example EB, 5-(Morpholine-4-carbonyl)-N-(pyrazin-2-yl)-N-({5-[5-(trifluoromethyl)-1,2,4-oxadiazol-3-yl]thiophen-2-yl}methyl)pyridazin-3-amine] | ≥ 10 µM
O=C(c1ccc(N(Cc2ccc(-c3noc(C(F)(F)F)n3)s2)c2cnccn2)nn1)N1CC[S+]([O-])CC1 [Example FD, 4-{6-[(Pyrazin-2-yl)({5-[5-(trifluoromethyl)-1,2,4-oxadiazol-3-yl]thiophen-2-yl}methyl)amino]pyridazine-3-carbonyl}-1lambda4-thiomorpholin-1-one] | ≥ 10 µM
COC1CN(C(=O)c2ccc(N(Cc3ccc(-c4noc(C(F)(F)F)n4)s3)c3cnccn3)nn2)C1 [Example DR, 6-(3-Methoxyazetidine-1-carbonyl)-N-(pyrazin-2-yl)-N-({5-[5-(trifluoromethyl)-1,2,4-oxadiazol-3-yl]thiophen-2-yl}methyl)pyridazin-3-amine] | ≥ 10 µM
COC1CN(C(=O)c2cnnc(N(Cc3ccc(-c4noc(C(F)(F)F)n4)s3)c3cnccn3)c2)C1 [Example DZ, 5-(3-Methoxyazetidine-1-carbonyl)-N-(pyrazin-2-yl)-N-({5-[5-(trifluoromethyl)-1,2,4-oxadiazol-3-yl]thiophen-2-yl}methyl)pyridazin-3-amine] | ≥ 10 µM
CNC(=O)c1ccc(N(Cc2ccc(-c3noc(C(F)(F)F)n3)s2)c2cnccn2)nn1 [Example FC, N-Methyl-6-[(pyrazin-2-yl)({5-[5-(trifluoromethyl)-1,2,4-oxadiazol-3-yl]thiophen-2-yl}methyl)amino]pyridazine-3-carboxamide] | ≥ 10 µM
O=C(c1ccc(N(Cc2ccc(-c3noc(C(F)(F)F)n3)s2)c2cnccn2)nn1)N1CCOCC1 [Example DS, 6-(Morpholine-4-carbonyl)-N-(pyrazin-2-yl)-N-({5-[5-(trifluoromethyl)-1,2,4-oxadiazol-3-yl]thiophen-2-yl}methyl)pyridazin-3-amine] | ≥ 10 µM
